Results published in US10525139B2, “Folate-conjugated molecules for delivery of toxic small molecule inhibitors to cancer cells and methods of use” (priority 2014, dated 2020).

Assays:
panel of cell lines = test: Apoptosis luminescence assay (Caspase) in a panel of cell lines; assay type: cell-based; details: 384-well plates, 72 hours
Method: Cells were grown in 384-well plates and treated for 72 hours with the indicated dose of Folate-Thap. Apoptosis was measured using a luminescence assay developed by Promega.

NOTCH1 target genes = test: NOTCH1 target gene expression by RT-PCR in T-ALL cell lines; assay type: cell-based, human; details: T-ALL cells (ALL/SIL, DND41), 24 hours
Method: Errors bars denote mean±SD of 4 replicates. […] The blot was stained with an antibody against the C-terminus of NOTCH1 that recognizes both the furin-processed NOTCH1 transmembrane subunit (TM) and the unprocessed NOTCH1 precursor (FL). The immunoblot was also stained with anti-ICN1 antibody. GAPDH was used as a loading control. […] Error bars indicate the mean±SD of 4 replicates. Data were analyzed using the ΔΔCT method and plotted as a percentage relative to the control gene RPL13A. Statistical significance among groups for treated vs. vehicle (DMSO) samples (***P≤0.0001) was determined by one-way ANOVA with Bonferroni's correction for multiple comparison testing. […] The blot was stained with an antibody against the C-terminus of NOTCH1 (N1) that recognizes both the furin-processed NOTCH1 transmembrane subunit (TM). GAPDH was used as a loading control. […] Cells were probed with an anti-NOTCH1 antibody (green) and nuclei were counterstained with DAPI. […] Error bars indicate the mean±SD of 4 replicates. Data were analyzed using the ΔΔCT method and plotted as a percentage relative to the control gene RPL13A. Statistical significance (***P≤0.001. ****P≤0.0001) for treated vs. vehicle (DMSO) was determined by one-way ANOVA with Bonferroni's correction for multiple comparison testing. […]

**Q.** C/C=C(/C)C(=O)O[C@H]1C(C)=C2C([C@@H]1OC(=O)CCCCCCC)[C@@](C)(OC(C)=O)C[C@H](OC(=O)CC[C@H](NC(=O)c1ccc(NCc3cnc4nc(N)[nH]c(=O)c4n3)cc1)C(=O)O)[C@@]1(O)[C@H]2OC(=O)[C@@]1(C)O (some centres unmarked) [JQ-FT] was tested. Which “apoptosis as measured by Caspase” value (panel of cell lines) did it give?
**A.** apoptotic effect

**Q.** What about the “NOTCH1 target gene expression” value (NOTCH1 target genes) of the same compound?
**A.** suppression of NOTCH1 target genes
